Data: PubChem BioAssay (NCI)
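Five concentrations, 48 hours, 96-well plates. Abbreviation: GI50, concentration required for 50% inhibition of growth. TGI is the concentration that stops growth completely.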

Key:
Assay in all cases: growth of human tumour cells (NCI), 48 h
UO-31 renal = system: UO-31 renal
RPMI-8226 leukemia = system: RPMI-8226 leukemia
COLO 205 colon = system: COLO 205 colon
RXF 393 renal = system: RXF 393 renal
HCC-2998 colon = system: HCC-2998 colon
HL-60(TB) leukemia = system: HL-60(TB) leukemia
HOP-92 NSCLC = system: HOP-92 NSCLC
MALME-3M melanoma = system: MALME-3M melanoma
SN12C renal = system: SN12C renal
CCRF-CEM leukemia = system: CCRF-CEM leukemia

| SMILES | TGI (UO-31 renal) [µM] | TGI (RPMI-8226 leukemia) [µM] | TGI (COLO 205 colon) [µM] | TGI (RXF 393 renal) [µM] | TGI (HCC-2998 colon) [µM] | TGI (HL-60(TB) leukemia) [µM] | TGI (HOP-92 NSCLC) [µM] | TGI (MALME-3M melanoma) [µM] | TGI (SN12C renal) [µM] | TGI (CCRF-CEM leukemia) [µM] | GI50 (UO-31 renal) [µM] | GI50 (RPMI-8226 leukemia) [µM] | GI50 (COLO 205 colon) [µM] | GI50 (RXF 393 renal) [µM] | GI50 (HCC-2998 colon) [µM] | GI50 (HL-60(TB) leukemia) [µM] | GI50 (HOP-92 NSCLC) [µM] | GI50 (MALME-3M melanoma) [µM] | GI50 (SN12C renal) [µM] | GI50 (CCRF-CEM leukemia) [µM] |
| --- | --- | --- | --- | --- | --- | --- | --- | --- | --- | --- | --- | --- | --- | --- | --- | --- | --- | --- | --- | --- |
| CN(C)CCNC(=O)c1cccc2nc3c(Cl)cccc3nc12 | > 40.5 | 82.6 | > 37.3 | 16.6 | 43.1 | > 100 | > 24.2 | 8.05 | 49.5 | – | – | – | – | – | – | – | – | – | – | – |
| OCCNCO | > 100 | > 100 | > 100 | > 100 | – | > 100 | > 100 | – | > 100 | > 100 | – | – | – | – | – | – | – | – | – | – |
| CC(C)(C)C1=NC(S)NC(CCC(=O)Nc2ccccc2[N+](=O)[O-])=C1 (stereo unspecified) | > 100 | – | > 100 | > 100 | > 100 | > 100 | > 100 | > 100 | > 100 | > 100 | – | – | – | – | – | – | – | – | – | – |
| O=C(/C=C(\[O-])c1ccccc1)CCCCCCC(=O)/C=C(\[O-])c1ccccc1.O=C(/C=C(\[O-])c1ccccc1)CCCCCCC(=O)/C=C(\[O-])c1ccccc1.O=C(/C=C(\[O-])c1ccccc1)CCCCCCC(=O)/C=C(\[O-])c1ccccc1.[La+3].[La+3] | > 50 | > 50 | > 50 | > 50 | > 50 | > 50 | > 50 | > 50 | > 50 | – | > 50 | > 50 | > 50 | > 50 | > 50 | > 50 | > 50 | > 50 | > 50 | – |
| COc1cc([C@@H]2c3cc4c(cc3[C@@H](NC(=O)c3cccc([N+](=O)[O-])c3)C3COC(=O)[C@@H]32)OCO4)cc(OC)c1O (stereo partly specified) | 12.2 | > 22.1 | > 100 | 9.97 | 3.17 | – | 22.8 | 4.77 | 1.49 | > 100 | – | – | – | – | – | – | – | – | – | – |
| O=C1CCC(NC(=O)c2ccccc2)C(=O)N1 (stereo unspecified) | > 100 | > 100 | > 100 | > 100 | > 100 | – | > 100 | > 100 | > 100 | – | – | – | – | – | – | – | – | – | – | – |
| CC1(C)N=C(N)N=C(N)N1c1ccc(CCCCc2ccc(S(=O)(=O)F)cc2Cl)c(Cl)c1 | 224 | – | 78 | 187 | 67.1 | 11.6 | 48.6 | 33.8 | 90.3 | 8.28 | – | – | – | – | – | – | – | – | – | – |
| CCOC(=O)c1cc(-c2ccc([N+](=O)[O-])cc2)n(-c2ccc(C(=O)O)c(O)c2)c1C | 18.3 | > 100 | 3.84 | 20.3 | – | 48.4 | 13.4 | 12.5 | 22.6 | > 100 | 3.74 | 0.148 | 1.6 | 5.95 | – | 4.94 | 2.09 | 2.23 | 6.73 | 2.75 |
| CCCCCCCCCCCCOC1C(CNCC2OC3OC(C)(C)OC3C2NC(=O)Nc2ccc(C(=O)OCC)cc2)OC2OC(C)(C)OC21 (stereo unspecified) | 13.8 | 4.53 | 3.76 | 4.8 | 3.23 | 5.9 | 3.92 | 29.1 | 3.74 | – | 3.96 | 2.13 | 1.99 | 2.73 | 1.8 | 2.65 | 1.84 | 8.99 | 1.96 | – |
